Data: patent publication US11547681B2, “N-acylethanolamide derivatives and uses thereof” (ELIEM THERAPEUTICS, INC., priority 2016, dated 2023)

Assay: in vitro
Conditions: for Measured concentration of analyte PEA, 0 min / Measured concentration of analyte PEA, 10 min / Measured concentration of analyte PEA, 20 min / Measured concentration of analyte PEA, 30 min / Measured concentration of analyte PEA, 60 min / % Remaining of Initial, 0 min / % Remaining of Initial, 10 min / % Remaining of Initial, 20 min / % Remaining of Initial, 30 min / % Remaining of Initial, 60 min: 1 μM; for % Remaining of Initial, 0 min / % Remaining of Initial, 10 min / % Remaining of Initial, 20 min / % Remaining of Initial, 30 min / % Remaining of Initial, 60 min / microsomal CLint at 1 μM / half-life at 1 μM: microsomes; for % Remaining of Initial, 0 min: 0 h; for % Remaining of Initial, 30 min: 0.5 h; for % Remaining of Initial, 60 min: 1 h
Description: The reaction mixture, minus cofactors, was prepared as described below. The test article was added into the reaction mixture at a final concentration of 1 μM. […] An aliquot of the reaction mixture (without cofactor) was equilibrated in a shaking water bath at 37° C. for 3 minutes. The reaction was initiated by the addition of cofactor, and the mixture was incubated in a shaking water bath at 37° C. Aliquots (100 μL) were withdrawn at 0, 10, 20, 30, and 60 minutes. All samples were immediately combined with 400 μL of ice-cold 50/50 acetonitrile/H2O containing 0.1% formic acid and internal standard to terminate the reaction. The samples were then mixed and centrifuged to precipitate proteins. Calibration standards were prepared in matched matrix. All samples and standards were assayed by LC-MS/MS using electrospray ionization for both the dosed prodrug I-9 and the expected drug (PEA). Analytical conditions are outlined in Appendix 4-1. The test article concentration at each time point was compared to the test article concentration at time 0 to determine the percent remaining at each time point. Half-lives were calculated using GraphPad software, fitting to a single-phase exponential decay equation.
Reaction mixture, minus cofactors, was prepared as described below. Test article was added into the reaction mixture at a final concentration of 1 μM. […] An aliquot of the reaction mixture (without cofactor) was equilibrated in a shaking water bath at 37° C. for 3 minutes. The reaction was initiated by the addition of cofactor, and the mixture was incubated in a shaking water bath at 37° C. Aliquots (100 μL) were withdrawn at 0, 10, 20, 30, and 60 minutes. Test article samples were immediately combined with 300 μL of ice-cold acetonitrile containing 1% formic acid. Control samples were immediately combined with 400 μL of ice-cold 50/50 acetonitrile (ACN)/dH2O containing 0.1% formic acid and internal standard to terminate the reaction. Samples were then mixed and centrifuged to precipitate proteins. Calibration standards were prepared in matched matrix. Samples and standards were assayed by LC-MS/MS using electrospray ionization for both dosed prodrug and expected drug (PEA). Analytical conditions are outlined in Appendix 8-1. Test article concentration at each time point was compared to test article concentration at time 0 to determine the percent remaining at each time point. Half-lives were calculated using GraphPad software, fitting to a single-phase exponential decay equation.
Reaction mixture, minus cofactors, was prepared as described below. Test article was added into the reaction mixture at a final concentration of 1 μM. […] An aliquot of the reaction mixture (without cofactor) was equilibrated in a shaking water bath at 37° C. for 5 minutes. Reaction was initiated by the addition of cofactor, and the mixture was incubated in a shaking water bath at 37° C. Aliquots (100 μL) were withdrawn at 0, 10, 20, 30, and 60 minutes. Test article samples were immediately combined with 300 μL of ice-cold acetonitrile containing 1% formic acid. Control samples were immediately combined with 400 μL of ice-cold 50/50 acetonitrile (ACN)/dH2O containing 0.1% formic acid and internal standard to terminate the reaction. Samples were then mixed and centrifuged to precipitate proteins. Calibration standards were prepared in matched matrix. Samples and standards were assayed by LC-MS/MS using electrospray ionization for both the dosed prodrug and the expected drug (PEA). Analytical conditions are outlined in Appendix 10-1. Test article concentration at each time point was compared to the test article concentration at time 0 to determine the percent remaining at each time point. Half-lives were calculated using GraphPad software, fitting to a single-phase exponential decay equation.
Reaction mixture, minus cofactors, was prepared as described below. Test article was added into the reaction mixture at a final concentration of 1 μM.

[1] = male, Sprague-Dawley, rat, Half-life
[2] = both, human, calculated value in parentheses
[3] = both, human, Calculated half-life (in parentheses)
[4] = male, Sprague-Dawley, rat, calculated value in parentheses
[5] = male, Sprague-Dawley, rat, Calculated half-life (in parentheses)

Row | Measured concentration of analyte PEA, 0 min (both, human) [µM] | Measured concentration of analyte PEA, 10 min (both, human) [µM] | Measured concentration of analyte PEA, 20 min (both, human) [µM] | Measured concentration of analyte PEA, 30 min (both, human) [µM] | Measured concentration of analyte PEA, 60 min (both, human) [µM] | % Remaining of Initial, 0 min (both, human) [%] | % Remaining of Initial, 10 min (both, human) [%] | % Remaining of Initial, 20 min (both, human) [%] | % Remaining of Initial, 30 min (both, human) [%] | % Remaining of Initial, 60 min (both, human) [%] | microsomal CLint at 1 μM (both, human) [µL/min/mg] | half-life at 1 μM (both, human, Half-life) [h] | Measured concentration of analyte PEA, 0 min (male, Sprague-Dawley, rat) [µM] | Measured concentration of analyte PEA, 10 min (male, Sprague-Dawley, rat) [µM] | Measured concentration of analyte PEA, 20 min (male, Sprague-Dawley, rat) [µM] | Measured concentration of analyte PEA, 30 min (male, Sprague-Dawley, rat) [µM] | Measured concentration of analyte PEA, 60 min (male, Sprague-Dawley, rat) [µM] | % Remaining of Initial, 0 min (male, Sprague-Dawley, rat) [%] | % Remaining of Initial, 10 min (male, Sprague-Dawley, rat) [%] | % Remaining of Initial, 20 min (male, Sprague-Dawley, rat) [%] | SMILES | other results
1 | 0.15 | 0.23 | 0.19 | 0.15 | 0.071 | 100 | 10 | 1.6 | <1.0 | <1.0 | 451 | 0.0517 | 0.40 | 0.11 | 0.028 | 0.0083 | 0 | 100 | <1.0 | <1.0 | CCCCCCCCCCCCCCCC(=O)NCCOC(=O)CCC [Compound I-2] | % Remaining of Initial, 30 min (male, Sprague-Dawley, rat): <1.0%; % Remaining of Initial, 60 min (male, Sprague-Dawley, rat): <1.0%; microsomal CLint at 1 μM (male, Sprague-Dawley, rat): > 1380 µL/min/mg; half-life at 1 μM [1]: < 0.0167 h
2 | 0 | 0.026 | 0.017 | 0.019 | 0.027 | 100 | 83 | 79 | 74 | 53 | < 23.1 | > 1 | 0.032 | 0.039 | 0.018 | 0.0067 | 0 | 100 | 81 | 88 | CCCCCCCCCCCCCCCC(=O)NCCOC(=O)CCC(=O)OCC(COC(=O)CCCCCCC)OC(=O)CCCCCCC (stereo not drawn) [Compound I-3, PEA-Succinate-Glycerol-Di-Caprylic] | microsomal CLint at 1 μM [2]: 20 µL/min/mg; half-life at 1 μM [3]: 1.15 h; % Remaining of Initial, 30 min (male, Sprague-Dawley, rat): 72%; % Remaining of Initial, 60 min (male, Sprague-Dawley, rat): 68%; microsomal CLint at 1 μM (male, Sprague-Dawley, rat): < 23.1 µL/min/mg; microsomal CLint at 1 μM [4]: 12.4 µL/min/mg; half-life at 1 μM [5]: 1.87 h; half-life at 1 μM [1]: > 1 h
3 | 0.014 | 0.020 | 0.025 | 0.022 | 0.016 | 100 | 90 | 82 | 79 | 62 | < 23.1 | > 1 | 0.034 | 0.033 | 0.015 | 0.015 | 0.0027 | 100 | 77 | 70 | CC/C=C\C/C=C\C/C=C\C/C=C\C/C=C\CCCC(=O)OCCNC(=O)CCCCCCCCCCCCCCC [Compound I-5] | microsomal CLint at 1 μM [2]: 15.4 µL/min/mg; half-life at 1 μM [3]: 1.5 h; % Remaining of Initial, 30 min (male, Sprague-Dawley, rat): 69%; % Remaining of Initial, 60 min (male, Sprague-Dawley, rat): 57%; microsomal CLint at 1 μM (male, Sprague-Dawley, rat): < 23.1 µL/min/mg; microsomal CLint at 1 μM [4]: 18.6 µL/min/mg; half-life at 1 μM [5]: 1.25 h; half-life at 1 μM [1]: > 1 h
4 | 0 | 0 | 0 | 0 | 0 | 100 | 82 | 58 | 66 | 68 | < 23.1 | > 1 | 0.14 | 0.064 | 0.017 | 0.0098 | 0.0012 | 100 | 68 | 67 | CCCCC/C=C\C/C=C\CCCCCCCC(=O)OCCNC(=O)CCCCCCCCCCCCCCC [Compound I-6] | microsomal CLint at 1 μM [2]: 14.3 µL/min/mg; half-life at 1 μM [3]: 1.62 h; % Remaining of Initial, 30 min (male, Sprague-Dawley, rat): 62%; % Remaining of Initial, 60 min (male, Sprague-Dawley, rat): 53%; microsomal CLint at 1 μM (male, Sprague-Dawley, rat): < 23.1 µL/min/mg; microsomal CLint at 1 μM [4]: 21.9 µL/min/mg; half-life at 1 μM [5]: 1.05 h; half-life at 1 μM [1]: > 1 h
5 | 0.22 | 0.39 | 0.28 | 0.22 | 0.080 | 100 | 4.6 | 1.3 | <1.0 | <1.0 | 612 | 0.0383 | 0.054 | 0.14 | 0.087 | 0.045 | 0.0085 | 100 | 45 | 17 | CCCCCCCCCCCCCCCC(=O)NCCOC(=O)CCC(=O)OC[C@H]1O[C@@](CO)(O[C@H]2O[C@H](CO)[C@@H](O)[C@H](O)[C@H]2O)[C@@H](O)[C@@H]1O [Compound I-7] | % Remaining of Initial, 30 min (male, Sprague-Dawley, rat): 11%; % Remaining of Initial, 60 min (male, Sprague-Dawley, rat): 2.1%; microsomal CLint at 1 μM (male, Sprague-Dawley, rat): 164 µL/min/mg; half-life at 1 μM [1]: 0.142 h
